Laboratory results from ChEMBL document CHEMBL2069169, “Novel triazines as potent and selective phosphodiesterase 10A inhibitors” (Bioorg Med Chem Lett, 2012).

Experiments:
Phosphodiesterase 3 = Phosphodiesterase 3 (Homo sapiens, UniProt Q14432+Q13370); assay: Inhibition of PDE3; assay type: protein assay
[1] = AUC in rat brain at 2 mg/kg, iv and 10 mg/kg, po; assay type: ADME, organism-based
[2] = Volume of distribution at steady state in rat at 2 mg/kg, iv and 10 mg/kg, po; assay type: ADME, organism-based; conditions: in vivo, read-out: Vdss
[3] = Oral bioavailability in rat at 10 mg/kg; assay type: ADME, organism-based; conditions: in vivo
[4] = Elimination half life in rat at 2 mg/kg, iv and 10 mg/kg, po; assay type: ADME, organism-based; conditions: in vivo, read-out: beta t1/2 (converted)
[5] = target: cGMP-specific 3',5'-cyclic phosphodiesterase (Canis lupus familiaris, UniProt O77746); assay: Inhibition of PDE5; set-up: species or system Homo sapiens
Rattus norvegicus [6] = assay: Antipsychotic activity in po dosed rat assessed as reduction of MK801-induced hyperactivity; assay type: functional; set-up: Activity: scale not given: the % may be the effect or the level left; conditions: for minimal effective dose: Rattus norvegicus, po, read-out: MED
Rattus norvegicus [7] = assay: Antipsychotic activity in po dosed rat assessed as reduction of MK801-induced stereotyped sniffing; assay type: functional; set-up: Activity: scale not given: the % may be the effect or the level left; conditions: for minimal effective dose: Rattus norvegicus, po, read-out: MED
[8] = Clearance in rat at 2 mg/kg, iv and 10 mg/kg, po; assay type: ADME, organism-based; conditions: in vivo
Phosphodiesterase 6 = assay: Inhibition of PDE6; assay type: protein assay, Homo sapiens
[9] = AUC in rat plasma at 2 mg/kg, iv and 10 mg/kg, po; assay type: ADME, organism-based
Phosphodiesterase 4 = Phosphodiesterase 4 (Homo sapiens, UniProt P27815+Q08499+Q07343+Q08493); assay: Inhibition of PDE4; assay type: protein assay
[10] = target: cGMP-dependent 3',5'-cyclic phosphodiesterase (Homo sapiens, UniProt O00408); assay: Inhibition of PDE2
[11] = target: cAMP and cAMP-inhibited cGMP 3',5'-cyclic phosphodiesterase 10A (Homo sapiens, UniProt Q9Y233); assay: Inhibition of human recombinant PDE10A-catalyzed cAMP hydrolysis
Homo sapiens = species: Homo sapiens; assay: Selectivity ratio of IC50 PDE2 to IC50 for human recombinant PDE10A

Sequence of cAMP and cAMP-inhibited cGMP 3',5'-cyclic phosphodiesterase 10A (Q9Y233 whole entry): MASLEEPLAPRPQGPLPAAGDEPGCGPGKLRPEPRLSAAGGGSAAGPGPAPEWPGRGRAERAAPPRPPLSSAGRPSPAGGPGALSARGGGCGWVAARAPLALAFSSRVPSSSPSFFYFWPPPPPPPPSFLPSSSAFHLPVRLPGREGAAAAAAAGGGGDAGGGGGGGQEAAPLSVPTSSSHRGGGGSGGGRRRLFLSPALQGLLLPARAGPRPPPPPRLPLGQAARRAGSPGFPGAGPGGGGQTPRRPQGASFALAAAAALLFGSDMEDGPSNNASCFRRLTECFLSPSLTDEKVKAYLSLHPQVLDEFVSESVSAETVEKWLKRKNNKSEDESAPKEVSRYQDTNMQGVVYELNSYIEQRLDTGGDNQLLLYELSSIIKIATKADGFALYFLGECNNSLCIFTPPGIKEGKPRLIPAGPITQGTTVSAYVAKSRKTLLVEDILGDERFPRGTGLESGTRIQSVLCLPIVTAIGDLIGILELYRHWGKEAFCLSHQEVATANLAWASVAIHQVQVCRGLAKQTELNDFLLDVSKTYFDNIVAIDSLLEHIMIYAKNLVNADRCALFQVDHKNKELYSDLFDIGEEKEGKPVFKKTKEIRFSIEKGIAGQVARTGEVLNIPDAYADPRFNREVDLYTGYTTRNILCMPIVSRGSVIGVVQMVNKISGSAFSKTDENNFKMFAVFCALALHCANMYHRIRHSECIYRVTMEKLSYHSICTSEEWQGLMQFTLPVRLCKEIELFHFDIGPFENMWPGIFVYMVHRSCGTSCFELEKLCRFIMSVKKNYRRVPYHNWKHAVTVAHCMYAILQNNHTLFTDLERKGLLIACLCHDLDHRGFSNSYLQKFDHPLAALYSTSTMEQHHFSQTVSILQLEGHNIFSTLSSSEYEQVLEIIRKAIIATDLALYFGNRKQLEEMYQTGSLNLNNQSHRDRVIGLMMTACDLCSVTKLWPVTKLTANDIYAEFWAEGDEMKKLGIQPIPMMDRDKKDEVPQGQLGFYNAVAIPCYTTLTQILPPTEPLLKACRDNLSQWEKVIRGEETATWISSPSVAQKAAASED
Sequence of cGMP-dependent 3',5'-cyclic phosphodiesterase (O00408 whole entry): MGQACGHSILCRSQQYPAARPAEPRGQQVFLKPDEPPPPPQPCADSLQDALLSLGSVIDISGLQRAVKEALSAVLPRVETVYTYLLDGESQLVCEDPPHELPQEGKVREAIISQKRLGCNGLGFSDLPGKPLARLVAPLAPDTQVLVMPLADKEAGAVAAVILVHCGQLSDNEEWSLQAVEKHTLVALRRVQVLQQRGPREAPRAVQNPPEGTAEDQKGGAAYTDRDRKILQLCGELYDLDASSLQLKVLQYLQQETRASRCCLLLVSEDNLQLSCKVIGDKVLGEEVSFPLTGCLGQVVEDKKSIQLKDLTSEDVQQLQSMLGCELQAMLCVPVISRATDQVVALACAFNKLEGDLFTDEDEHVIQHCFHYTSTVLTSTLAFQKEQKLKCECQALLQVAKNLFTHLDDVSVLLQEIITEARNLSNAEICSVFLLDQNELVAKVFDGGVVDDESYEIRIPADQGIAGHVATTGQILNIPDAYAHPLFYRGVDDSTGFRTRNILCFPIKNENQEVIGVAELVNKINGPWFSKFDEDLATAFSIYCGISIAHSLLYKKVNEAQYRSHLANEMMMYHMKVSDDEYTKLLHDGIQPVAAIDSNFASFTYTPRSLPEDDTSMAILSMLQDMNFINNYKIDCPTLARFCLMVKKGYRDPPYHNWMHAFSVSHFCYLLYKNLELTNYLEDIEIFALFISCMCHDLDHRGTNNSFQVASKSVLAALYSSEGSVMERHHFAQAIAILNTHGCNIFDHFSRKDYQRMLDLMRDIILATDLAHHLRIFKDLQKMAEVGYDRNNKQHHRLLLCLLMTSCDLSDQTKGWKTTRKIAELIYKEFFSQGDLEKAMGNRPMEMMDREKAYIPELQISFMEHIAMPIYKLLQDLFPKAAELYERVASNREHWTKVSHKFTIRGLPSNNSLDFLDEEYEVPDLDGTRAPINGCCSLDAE

With COc1cc(OC)c2nnc3c(C)nc(-c4cccnc4C)n3c2c1 the IC50 (Phosphodiesterase 3) was > 10 µM, the AUC [1] was 6590 ng·h/mL and the Vd [2] was 0.4 L/kg. The bioavailability [3] was 100%, the half-life [4] was 2 h and the IC50 [5] was 1.43 µM. It also gave an Activity (Rattus norvegicus [6]) of 90.2%, a minimal effective dose (Rattus norvegicus [6]) of 0.25 mg/kg and an Activity (Rattus norvegicus [7]) of 71.3%. It also gave a minimal effective dose (Rattus norvegicus [7]) of 0.25 mg/kg, a clearance [8] of 4 mL/min/kg and an IC50 (Phosphodiesterase 6) of 0.493 µM. The AUC [9] was 21300 ng·h/mL and the IC50 (Phosphodiesterase 4) was > 10 µM.

For COc1cc(F)cc2c1nnc1c(C)nc(-c3sccc3C)n12, the IC50 (Phosphodiesterase 3) was > 10 µM, the IC50 [5] was 3.6 µM and the IC50 (Phosphodiesterase 6) was 3.27 µM. It also gave an IC50 (Phosphodiesterase 4) of 7.72 µM.

In the case of COc1ccc2nnc3c(C)nc(-c4cc(Cl)ccc4Cl)n3c2n1, the IC50 (Phosphodiesterase 3) is reported as 0.75 µM, the IC50 [5] is reported as 1.15 µM and the IC50 (Phosphodiesterase 6) is reported as 0.829 µM. The IC50 [10] was 0.00206 µM, the IC50 (Phosphodiesterase 4) was 4.41 µM and the IC50 [11] was 0.0531 µM.

With COc1cccc(-c2nc(C)c3nnc4c(OC)cc(F)cc4n23)c1 the IC50 (Phosphodiesterase 3) was > 1 µM, the IC50 [5] was > 1 µM and the IC50 (Phosphodiesterase 6) was > 1 µM. The IC50 [10] was 2 µM and the IC50 (Phosphodiesterase 4) was > 1 µM.

In the case of COc1cc(F)cc2c1nnc1c(C)nc(-c3c(C)nn(C)c3C)n12, the IC50 (Phosphodiesterase 3) is reported as > 10 µM, the IC50 [5] is reported as > 10 µM and the IC50 (Phosphodiesterase 6) is reported as > 5 µM. For the same molecule, the IC50 (Phosphodiesterase 4) was > 10 µM.

With COc1cc(OC)c2nnc3c(C)nc(-c4ccccc4Cl)n3c2c1 the IC50 (Phosphodiesterase 3) was > 5 µM, the IC50 [5] was 0.436 µM and the Activity (Rattus norvegicus [6]) was 70.3%. For the same molecule, the minimal effective dose (Rattus norvegicus [6]) was 0.5 mg/kg, the Activity (Rattus norvegicus [7]) was 55.7% and the minimal effective dose (Rattus norvegicus [7]) was 0.5 mg/kg. It also gave an IC50 (Phosphodiesterase 6) of 0.07315 µM, an IC50 [10] of 0.0303 µM and an IC50 (Phosphodiesterase 4) of 1.91 µM.

With COc1cc(N2CCOCC2)cc2c1nnc1c(C)nc(-c3ccncc3C)n12 the IC50 (Phosphodiesterase 3) was > 10 µM, the IC50 [5] was 5.38 µM and the IC50 (Phosphodiesterase 6) was 3.12 µM. For the same molecule, the IC50 [10] was 0.00437 µM and the IC50 (Phosphodiesterase 4) was > 10 µM.

With COc1ccc2nnc3c(C)nc(-c4ccc(F)cc4C)n3c2n1 the IC50 (Phosphodiesterase 3) was 7.26 µM, the IC50 [5] was 34.1 µM and the IC50 (Phosphodiesterase 6) was 1.15 µM. For the same molecule, the IC50 [10] was 0.0132 µM, the IC50 (Phosphodiesterase 4) was > 10 µM and the IC50 [11] was 0.0459 µM.

For COc1cc(N2CCOCC2)cc2c1nnc1c(C)nc(-c3ccccc3C)n12, the IC50 (Phosphodiesterase 3) was > 10 µM, the IC50 [5] was 0.651 µM and the IC50 (Phosphodiesterase 6) was 0.693 µM. For the same molecule, the IC50 (Phosphodiesterase 4) was 2.92 µM.

With COc1cc(OC)c2nnc3c(C)nc(-c4ccccc4C(F)(F)F)n3c2c1 the IC50 (Phosphodiesterase 3) was > 1 µM, the IC50 [5] was > 1 µM and the IC50 (Phosphodiesterase 6) was > 1 µM. For the same molecule, the IC50 [10] was 0.522 µM, the IC50 (Phosphodiesterase 4) was > 1 µM and the IC50 [11] was 0.00335 µM.

COc1ccc(F)c(-c2nc(C)c3nnc4ccc(OC)nc4n23)c1 showed an IC50 (Phosphodiesterase 3) of 1.82 µM, an IC50 [5] of 0.702 µM and an IC50 (Phosphodiesterase 6) of 0.734 µM. For the same molecule, the IC50 (Phosphodiesterase 4) was 4.82 µM.

With COc1cc(OC)c2nnc3c(C)nc(-c4cnccc4C)n3c2c1 the IC50 (Phosphodiesterase 3) was > 10 µM, the AUC [1] was 3000 ng·h/mL and the Vd [2] was 0.5 L/kg. The bioavailability [3] was 100%, the half-life [4] was 0.8 h and the IC50 [5] was 5.07 µM. The Activity (Rattus norvegicus [6]) was 79.9%, the minimal effective dose (Rattus norvegicus [6]) was 1 mg/kg and the Activity (Rattus norvegicus [7]) was 69.8%. For the same molecule, the minimal effective dose (Rattus norvegicus [7]) was 1 mg/kg, the clearance [8] was 14 mL/min/kg and the IC50 (Phosphodiesterase 6) was 1.822 µM. The AUC [9] was 8790 ng·h/mL and the IC50 (Phosphodiesterase 4) was > 10 µM.

In the case of COc1cccc2c1nnc1c(C)nc(-c3ccccc3Cl)n12, the IC50 (Phosphodiesterase 3) is reported as > 10 µM, the IC50 [5] is reported as 3.06 µM and the IC50 (Phosphodiesterase 6) is reported as 1.06 µM. It also gave an IC50 (Phosphodiesterase 4) of 0.0708 µM.

For COc1cc(F)cc2c1nnc1c(C)nc(-c3sc(C)nc3C)n12, the IC50 (Phosphodiesterase 3) was > 10 µM, the IC50 [5] was 4.76 µM and the IC50 (Phosphodiesterase 6) was 3.88 µM. It also gave an IC50 (Phosphodiesterase 4) of 2.46 µM.

With COc1cc(C(F)(F)F)cc2c1nnc1c(C)nc(-c3cccc(F)c3C)n12 the IC50 (Phosphodiesterase 3) was > 5 µM, the IC50 [5] was 2.13 µM and the IC50 (Phosphodiesterase 6) was 1.26 µM. The IC50 [10] was 0.722 µM, the IC50 (Phosphodiesterase 4) was > 5 µM and the IC50 [11] was 0.00185 µM.

Work on COc1ccc2nnc3c(C)nc(-c4ccccc4Cl)n3c2n1 yielded an IC50 (Phosphodiesterase 3) of 1.24 µM, an IC50 [5] of 1.68 µM and an IC50 (Phosphodiesterase 6) of 0.435 µM. The IC50 [10] was 0.0043 µM, the IC50 (Phosphodiesterase 4) was > 10 µM and the IC50 [11] was 0.0131 µM.

For COc1cc(F)cc2c1nnc1c(C)nc(-c3cccc(F)c3C)n12, the IC50 (Phosphodiesterase 3) was > 1 µM, the IC50 [5] was > 1 µM and the IC50 (Phosphodiesterase 6) was > 1 µM. The IC50 (Phosphodiesterase 4) was > 1 µM.

For COc1ccc2nnc3c(C)nc(-c4cc(OC(C)C)ccc4F)n3c2n1, the IC50 [10] was 0.102 µM and the IC50 [11] was 2.43 µM.

In the case of COc1ccc2nnc3c(C)nc(-c4ccc(Cl)cc4Cl)n3c2n1, the IC50 (Phosphodiesterase 3) is reported as > 1 µM, the IC50 [5] is reported as > 1 µM and the IC50 (Phosphodiesterase 6) is reported as > 1 µM. For the same molecule, the IC50 (Phosphodiesterase 4) was > 1 µM.

In the case of COc1ccc2nnc3c(C)nc(-c4ccccc4C)n3c2n1, the IC50 (Phosphodiesterase 3) is reported as > 5 µM, the IC50 [5] is reported as 3.41 µM and the IC50 (Phosphodiesterase 6) is reported as 1.57 µM. For the same molecule, the IC50 (Phosphodiesterase 4) was > 10 µM and the IC50 [11] was 0.0476 µM.

For COc1cc(OC)c2nnc3c(C)nc(-c4ccccc4C)n3c2c1, the IC50 (Phosphodiesterase 3) was > 10 µM, the IC50 [5] was 1.11 µM and the IC50 (Phosphodiesterase 6) was 0.349 µM. For the same molecule, the IC50 [10] was 0.0959 µM, the IC50 (Phosphodiesterase 4) was > 10 µM and the IC50 [11] was 0.00513 µM.

For COc1cc(F)c2nnc3c(C)nc(-c4ccccc4OC)n3c2c1, the IC50 (Phosphodiesterase 3) was > 1 µM, the IC50 [5] was > 1 µM and the Ratio IC50 (Homo sapiens) was > 400. The IC50 (Phosphodiesterase 6) was > 1 µM and the IC50 (Phosphodiesterase 4) was > 1 µM.

With COc1cc(OC(F)F)cc2c1nnc1c(C)nc(-c3ccncc3C)n12 the IC50 (Phosphodiesterase 3) was > 10 µM, the IC50 [5] was 4.02 µM and the IC50 (Phosphodiesterase 6) was 0.909 µM. The IC50 [10] was 0.944 µM, the IC50 (Phosphodiesterase 4) was > 10 µM and the IC50 [11] was 0.007 µM.

With COc1cc(N2CCOCC2)cc2c1nnc1c(C)nc(-c3ccccc3Cl)n12 the IC50 (Phosphodiesterase 3) was > 10 µM, the IC50 [5] was 0.603 µM and the IC50 (Phosphodiesterase 6) was 0.276 µM. The IC50 (Phosphodiesterase 4) was 2.68 µM.

In the case of COc1cc(F)cc2c1nnc1c(C)nc(-c3ccncc3C)n12, the IC50 (Phosphodiesterase 3) is reported as > 10 µM, the IC50 [5] is reported as > 10 µM and the IC50 (Phosphodiesterase 6) is reported as > 10 µM. For the same molecule, the IC50 [10] was 1.22 µM, the IC50 (Phosphodiesterase 4) was > 10 µM and the IC50 [11] was 0.0072 µM.

For COc1ccc2nnc3c(C)nc(-c4ccc(F)cc4Cl)n3c2n1, the IC50 (Phosphodiesterase 3) was > 1 µM, the IC50 [5] was > 1 µM and the IC50 (Phosphodiesterase 6) was 0.462 µM. The IC50 (Phosphodiesterase 4) was > 1 µM.

With COc1cc(F)cc2c1nnc1c(C)nc(-c3cccnc3C)n12 the IC50 (Phosphodiesterase 3) was > 10 µM, the IC50 [5] was > 5 µM and the IC50 (Phosphodiesterase 6) was 2.83 µM. For the same molecule, the IC50 [10] was 1.27 µM, the IC50 (Phosphodiesterase 4) was > 10 µM and the IC50 [11] was 0.00784 µM.

For COc1cc(F)cc2c1nnc1c(C)nc(-c3cnccc3C)n12, the IC50 (Phosphodiesterase 3) was > 10 µM, the IC50 [5] was > 10 µM and the IC50 (Phosphodiesterase 6) was > 10 µM. The IC50 (Phosphodiesterase 4) was > 10 µM.

For COc1cccc2c1nnc1c(C)nc(-c3ccccc3C)n12, the IC50 (Phosphodiesterase 3) was > 10 µM, the IC50 [5] was 3.67 µM and the Ratio IC50 (Homo sapiens) was 60. For the same molecule, the IC50 (Phosphodiesterase 6) was 1.98 µM and the IC50 (Phosphodiesterase 4) was 0.176 µM.

With COc1ccccc1-c1nc(C)c2nnc3c(OC)cc(F)cc3n12 the IC50 (Phosphodiesterase 3) was > 10 µM, the IC50 [5] was > 10 µM and the IC50 (Phosphodiesterase 6) was > 10 µM. For the same molecule, the IC50 (Phosphodiesterase 4) was > 10 µM.

In the case of COc1cc(C(F)(F)F)cc2c1nnc1c(C)nc(-c3cnccc3C)n12, the IC50 (Phosphodiesterase 3) is reported as > 10 µM, the IC50 [5] is reported as > 10 µM and the IC50 (Phosphodiesterase 6) is reported as 5.25 µM. For the same molecule, the IC50 [10] was 0.864 µM, the IC50 (Phosphodiesterase 4) was > 10.001 µM and the IC50 [11] was 0.00511 µM.

Work on COc1cc(F)c2nnc3c(C)nc(-c4sccc4C)n3c2c1 yielded an IC50 (Phosphodiesterase 3) of 2.25 µM, an IC50 [5] of 2.78 µM and an IC50 (Phosphodiesterase 6) of 1.23 µM. It also gave an IC50 (Phosphodiesterase 4) of 3.67 µM.
